Patent US11014895B2, “Heterocyclic urea compound, and drug composition and application thereof” (CHINA PHARMACEUTICAL UNIVERSITY, priority 2017, dated 2021)

Legend:
[1] = target: T1, IDO1 enzyme in the Hela cell (Homo sapiens, UniProt P14902); assay: Cell activity: interferon γ-stimulated Hela cells, absorbance of supernatant at 480 nm; assay type: cell-based; settings: interferon γ 100 ng/ml, 72 hours
T1 construct: endogenous in cells; host or cells: HeLa cells stimulated with interferon γ (100 ng/ml)
Experimental: (2) Method for Determining Cell Activity
Hela cells were cultured and passaged in a DMEM medium supplemented with antibiotics in a 37° C. CO2 incubator, inoculated into a 96-well plate for overnight culture, then 1 μl of heterocyclic urea compound with appropriate concentration was added to each well, and then 100 μl of interferon γ (final concentration was 100 ng/ml) was added. After the cells were continuously cultured for 72 hours, 70 μl of cell culture supernatant was added to a 96-well V-bottom plate, 5 μl of trichloroacetic acid (6.1 N) was added to each well, incubated at 50° C. for 30 min, then taken out and centrifuged at […] for 10 min. The above centrifuged supernatant was transferred to a 384-well microplate (20 μl/well), then 20 μl of 2% didimethylaminobenzaldehyde acetic acid solution was added to each well, shaken and mixed evenly, then photometric absorption was performed at 480 nm, and values were measured.

[2] = target: IDO1 enzyme (Homo sapiens, UniProt P14902); assay: Determination of biochemical activity of IDO1 enzyme (absorbance at 320 nm); settings: room temperature, 3 hours
Experimental: (1) Method for Determining Biochemical Activity of IDO1 Enzyme
Firstly, 15 μl of buffer solution of sodium hydrogen phosphate (PH:7-8), 5 μl of reaction buffer solution containing a proper amount of IDO-1 enzyme and heterocyclic urea compound prepared by the invention were added into wells of a microplate, mixed evenly, and reacted at room temperature for 3 hours; then a light absorption value at 320 nm wavelength was detected by using Envision Multilabel Reader of PE company, an inhibition rate of the heterocyclic urea compound on the enzyme reaction was calculated according to an absorption ratio, and an IC50 value of the heterocyclic urea compound was calculated through analysis by GraphPad.

T1 sequence (P14902 whole entry): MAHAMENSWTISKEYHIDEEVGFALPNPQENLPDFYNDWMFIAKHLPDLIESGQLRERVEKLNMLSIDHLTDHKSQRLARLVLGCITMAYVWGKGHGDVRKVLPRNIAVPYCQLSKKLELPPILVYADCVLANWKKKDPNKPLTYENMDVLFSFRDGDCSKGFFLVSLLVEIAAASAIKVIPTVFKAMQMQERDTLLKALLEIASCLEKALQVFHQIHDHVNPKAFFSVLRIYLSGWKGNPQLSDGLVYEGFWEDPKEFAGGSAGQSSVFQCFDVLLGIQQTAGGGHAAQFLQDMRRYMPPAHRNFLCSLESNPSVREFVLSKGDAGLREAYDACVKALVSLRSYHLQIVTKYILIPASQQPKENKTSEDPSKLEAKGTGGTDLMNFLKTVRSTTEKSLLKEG
Chain of IDO1 enzyme (P14902 whole entry): as above

Row | SMILES | IC50 [1] [µM] | IC50 [2] [µM]
1 | COc1ccc(NC(=O)Nc2conc2/C(=N/O)Nc2ccc(F)c(Br)c2)cc1 [Embodiment 100, (Z)-1-(4-(N-(3-bromo-4-fluorophenyl)-N′-hydroxyaminoiminomethyl)-isoxazole-3-substituted)-4-(4-methoxyphenyl)urea] | 0.1 to 1 | 0.1 to 1
2 | O=C(Nc1nonc1/C(=N/O)Nc1ccc(F)c(Br)c1)Nc1c[nH]c2ccccc12 [Embodiment 37, (Z)-1-(4-(N-(3-bromo-4-fluorophenyl)-N′-hydroxyaminoiminomethyl)-1,2,5-oxadiazole-3-substituted)-3-(1H-indole-3-substituted)urea] | 0.1 to 1 | 0.1 to 1
3 | O=C(Nc1cocc1/C(=N/O)Nc1ccc(F)c(Br)c1)NC1CC1 [Embodiment 65] | 0.1 to 1 | 0.1 to 1
4 | O=C(Nc1conc1/C(=N/O)Nc1ccc(F)c(Br)c1)NC1CCC(O)CC1 (stereo not drawn) [Embodiment 105] | < 0.001 | < 0.001
5 | N=C(NCCO)Nc1nonc1/C(=N/O)Nc1ccc(F)c(Br)c1 [Embodiment 152, (Z)-1-(4-(N-(3-bromo-4-fluorophenyl)-N′-hydroxyaminoiminomethyl)-1,2,5-oxadiazole-3-substituted)-3-(2-hydroxyethyl)guanidine] | < 0.001 | < 0.001
6 | NC1CCC(NC(=S)Nc2nonc2/C(=N/O)Nc2ccc(F)c(Br)c2)CC1 (stereo not drawn) [Embodiment 126, (Z)-1-(4-(N-(3-bromo-4-fluorophenyl)-N′-hydroxyaminoiminomethyl)-1,2,5-oxadiazole-3-substituted)-3-(4-aminocyclohexyl)thiourea] | 0.1 to 1 | 0.1 to 1
7 | CS(=O)(=O)NCCNC(=O)Nc1cocc1/C(=N/O)Nc1ccc(F)c(Br)c1 [Embodiment 72, (Z)-1-(4-(N-(3-bromo-4-fluorophenyl)-N′-hydroxyaminoiminomethyl)-furan-3-substituted)-3-(2-methamidoethyl)urea] | 0.1 to 1 | 0.1 to 1
8 | NCCNC(=O)Nc1nocc1/C(=N/O)Nc1ccc(F)c(Br)c1 [Embodiment 90, (Z)-1-(4-(N-(3-bromo-4-fluorophenyl)-N′-hydroxyaminoiminomethyl)-isoxazole-3-substituted)+3-(2-aminoethyl)urea] | < 0.001 | < 0.001
9 | O=C(Nc1nonc1/C(=N/O)Nc1ccc(F)c(Br)c1)Nc1csc2ccccc12 [Embodiment 39, (Z)-1-(4-(N-(3-bromo-4-fluorophenyl)-N′-hydroxyaminoiminomethyl)-1,2,5-oxadiazole-3-substituted)-3-(benzothiophene-3-substituted)urea] | 0.1 to 1 | 0.1 to 1
10 | NS(=O)(=O)NCCCNC(=O)Nc1nonc1/C(=N/O)Nc1ccc(F)c(Br)c1 [Embodiment 18, (Z)-1-(4-(N-(3-bromo-4-fluorophenyl)-N′-hydroxyaminoiminomethyl)-1,2,5-oxadiazole-3-substituted)-3-(3-aminosulfonylamino-propyl)urea] | < 0.001 | < 0.001
11 | O=C(NCCO)Nc1conc1/C(=N/O)Nc1ccc(F)c(Br)c1 [Embodiment 110] | < 0.001 | < 0.001
12 | O=C(Nc1ccoc1)Nc1nonc1/C(=N/O)Nc1ccc(F)c(Br)c1 [Embodiment 41, (Z)-1-(4-(N-(3-bromo-4-fluorophenyl)-N′-hydroxyaminoiminomethyl)-1,2,5-oxadiazole-3-substituted)-3-(furan-3-substituted)urea] | 0.1 to 1 | 0.1 to 1
13 | O=C(Nc1nonc1/C(=N/O)Nc1ccc(F)c(Cl)c1)NC1CCCCC1 [Embodiment 25, (Z)-1-(4-(N-(3-chloro-4-fluorophenyl)-N′-hydroxyaminoiminomethyl)-1,2,5-oxadiazole-3-substituted)-3-cyclohexylurea] | 0.1 to 1 | 0.1 to 1
14 | COc1ccc(NC(=N)Nc2nocc2/C(=N/O)Nc2ccc(F)c(Br)c2)cc1 [Embodiment 157, (Z)-1-(4-(N-(3-bromo-4-fluorophenyl)-N′-hydroxyaminoiminomethyl)-isoxazole-3-substituted)-3-(4-methoxyphenyl)guanidine] | 0.1 to 1 | 0.1 to 1
15 | CS(=O)(=O)NCCNC(=O)Nc1nocc1/C(=N/O)Nc1ccc(F)c(Br)c1 [Embodiment 93, (Z)-1-(4-(N-(3-bromo-4-fluorophenyl)-N′-hydroxyaminoiminomethyl)-isoxazole-3-substituted)-3-(2-methamidoethyl)urea] | < 0.001 | < 0.001
16 | COc1cccc(NC(=O)Nc2nocc2/C(=N/O)Nc2ccc(F)c(Br)c2)c1 [Embodiment 80, (Z)-1-(4-(N-(3-bromo-4-fluorophenyl)-N′-hydroxyaminoiminomethyl)-isoxazole-3-substituted)-3-(3-methoxyphenyl)urea] | > 1 | > 1
17 | O=C(Nc1conc1/C(=N/O)Nc1ccc(F)c(Cl)c1)NC1CCCCC1 [Embodiment 114] | < 0.001 | < 0.001
18 | O=C(Nc1ccccc1)Nc1nonc1/C(=N/O)Nc1ccc(F)c(Br)c1 [Embodiment 19, (Z)-1-(4-(N-(4-bromo-3-fluorophenyl)-N′-hydroxyaminoiminomethyl)-1,2,5-oxadiazole-3-substituted)-3-phenylurea] | 0.1 to 1 | 0.1 to 1
19 | NCCNC(=O)Nc1cocc1/C(=N/O)Nc1ccc(F)c(Br)c1 [Embodiment 69, (Z)-1-(4-(N-(3-bromo-4-fluorophenyl)-N′-hydroxyaminoiminomethyl)-furan-3-substituted)-3-(2-aminoethyl)urea] | 0.1 to 1 | 0.1 to 1
20 | O=C(Nc1ccccc1)Nc1nocc1/C(=N/O)Nc1ccc(F)c(Cl)c1 [Embodiment 98, (Z)-1-(4-(N-(3-chloro-4-fluorophenyl)-N′-hydroxyaminoiminomethyl)-isoxazole-3-substituted)-3-(phenyl)urea] | 0.1 to 1 | 0.1 to 1
21 | N=C(Nc1cocc1/C(=N/O)Nc1ccc(F)c(Br)c1)NC1CCCCC1 [Embodiment 162, (Z)-1-(4-(N-(3-bromo-4-fluorophenyl)-N′-hydroxyaminoiminomethyl)-furan-3-substituted)-3-cyclohexylguanidine] | 0.1 to 1 | 0.1 to 1
22 | NC1CCC(NC(=O)Nc2nocc2/C(=N/O)Nc2ccc(F)c(Br)c2)CC1 (stereo not drawn) [Embodiment 87, (Z)-1-(4-(N-(3-bromo-4-fluorophenyl)-N′-hydroxyaminoiminomethyl)-isoxazole-3-substituted)-3-(4-aminocyclohexyl)urea] | < 0.001 | < 0.001
23 | COc1ccc(NC(=S)Nc2nocc2/C(=N/O)Nc2ccc(F)c(Br)c2)cc1 [Embodiment 133, (Z)-1-(4-(N-(3-bromo-4-fluorophenyl)-N′-hydroxyaminoiminomethyl)-isoxazole-3-substituted)-3-(4-methoxyphenyl)thiourea] | 0.1 to 1 | 0.1 to 1
24 | O=C(Nc1cocc1/C(=N/O)Nc1ccc(F)c(Br)c1)NC1CCNCC1 [Embodiment 64, (Z)-1-(4-(N-(3-bromo-4-fluorophenyl)-N′-hydroxyaminoiminomethyl)-furan-3-substituted)-3-(piperidine-4-substituted)urea] | 0.1 to 1 | 0.1 to 1
25 | NS(=O)(=O)N1CCC(NC(=O)Nc2nonc2/C(=N/O)Nc2ccc(F)c(Br)c2)CC1 [Embodiment 15, (Z)-1-(4-(N-(3-bromo-4-fluorophenyl)-N′-hydroxyaminoiminomethyl)-1,2,5-oxadiazole-3-substituted)-3-(1(aminosulfonyl)piperidine-4-substituted)urea] | < 0.001 | < 0.001
26 | CCCNC(=O)Nc1cocc1/C(=N/O)Nc1ccc(F)c(Br)c1 [Embodiment 70, (Z)-1-(4-(N-(3-bromo-4-fluorophenyl)-N′-hydroxyaminoiminomethyl)-furan-3-substituted)-3-propylurea] | 0.1 to 1 | 0.1 to 1
27 | O/N=C(\Nc1ccc(F)c(Br)c1)c1nonc1NC(=S)NC1CCNCC1 [Embodiment 124, (Z)-1-(4-(N-(3-bromo-4-fluorophenyl)-N′-hydroxyaminoiminomethyl)-1,2,5-oxadiazole-3-substituted)-3-(piperidine-4-substituted)thiourea] | < 0.001 | < 0.001
28 | O/N=C(\Nc1ccc(F)c(Br)c1)c1nonc1NC(=S)Nc1ccc(C(F)(F)F)cc1 [Embodiment 119, (Z)-1-(4-(N-(3-bromo-4-fluorophenyl)-N′-hydroxyaminoiminomethyl)-1,2,5-oxadiazole-3-substituted)-3-(4-trifluoromethylphenyl)thiourea] | > 1 | > 1
29 | O=C(Nc1ccncc1)Nc1nonc1/C(=N/O)Nc1ccc(F)c(Br)c1 [Embodiment 35] | 0.1 to 1 | 0.1 to 1
30 | O/N=C(\Nc1ccc(F)c(Br)c1)c1nonc1NC(=S)NC1CCCC1 [Embodiment 122, (Z)-1-(4-(N-(3-bromo-4-fluorophenyl)-N′-hydroxyaminoiminomethyl)-1,2,5-oxadiazole-3-substituted)-3-(cyclopentyl)thiourea] | > 1 | > 1
